In ChEMBL document CHEMBL1201862, “PubChem BioAssay data set” (2004):
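These data come from cells grown in 96-well plates and exposed to compound for 48 hours at five concentrations. Abbreviation: GI50, concentration required for 50% inhibition of growth.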 The source made the active and inactive calls. No stated cut-off is given here; in the data, active = GI50 up to about 1.1 µM and inactive = higher. Where a SMILES comes first, the peptide text is derived from it. [ ]: non-standard residue; d: D form. Hiv = CC(C)[C@H](O)C(=O)O

Legend:
Test in all cases: NCI-60 cell line screen, 48 h
SNB-75 = system: SNB-75
T47D = system: T47D
CAKI-1 = system: CAKI-1
OVCAR-4 = system: OVCAR-4
UO-31 = system: UO-31
MDA-MB-435 = system: MDA-MB-435
MCF7 = system: MCF7
SK-MEL-5 = system: SK-MEL-5
MDA-MB-231 = system: MDA-MB-231
OVCAR-5 = system: OVCAR-5
DU-145 = system: DU-145
A498 = system: A498
HT-29 = system: HT-29
NCI-H226 = system: NCI-H226
HOP-92 = system: HOP-92
LOX IMVI = system: LOX IMVI
Hs-578T = system: Hs-578T
SF-268 = system: SF-268

| SMILES | GI50 (SNB-75) | GI50 (T47D) | GI50 (CAKI-1) | GI50 (OVCAR-4) | GI50 (UO-31) | GI50 (MDA-MB-435) | GI50 (MCF7) | GI50 (SK-MEL-5) | GI50 (MDA-MB-231) | GI50 (OVCAR-5) | GI50 (DU-145) | GI50 (A498) | GI50 (HT-29) | GI50 (NCI-H226) | GI50 (HOP-92) | GI50 (LOX IMVI) | GI50 (Hs-578T) | GI50 (SF-268) |
| --- | --- | --- | --- | --- | --- | --- | --- | --- | --- | --- | --- | --- | --- | --- | --- | --- | --- | --- |
| CC(C)CC(O)P(=O)(O)O.NC1CCCCC1 (centres undefined) | > 100 µM (inactive) | > 100 µM (inactive) | > 100 µM (inactive) | > 100 µM (inactive) | > 100 µM (inactive) | > 100 µM (inactive) | > 100 µM (inactive) | > 100 µM (inactive) | > 100 µM (inactive) | > 100 µM (inactive) | > 100 µM (inactive) | > 100 µM (inactive) | > 100 µM (inactive) | > 100 µM (inactive) |  |  |  |  |
| CN1c2ccccc2C(=O)Nc2cnc(Cl)nc21 | 39.2 µM (inactive) | > 100 µM (inactive) | > 100 µM (inactive) | 93.1 µM (inactive) | > 100 µM (inactive) | > 100 µM (inactive) | > 100 µM (inactive) | > 100 µM (inactive) | 44.3 µM (inactive) | > 100 µM (inactive) | > 100 µM (inactive) | 73.6 µM (inactive) | > 100 µM (inactive) | > 100 µM (inactive) | 35.7 µM (inactive) | > 100 µM (inactive) |  |  |
| O=Cc1ccc2c(c1)CC1(Cc3ccccc3C1)C2 |  | 25.9 µM (inactive) |  | 17.6 µM (inactive) | 31.3 µM (inactive) | 16.7 µM (inactive) | 31 µM (inactive) | 16 µM (inactive) | 13.5 µM (inactive) | > 100 µM (inactive) |  | 30.3 µM (inactive) | 23.4 µM (inactive) | 22.5 µM (inactive) | 16.4 µM (inactive) | 18.4 µM (inactive) | 3.72 µM (inactive) |  |
| CCOC(=O)c1sc2[n+](c1C)C(=O)/C(=C/c1ccc([N+](=O)[O-])cc1)S2 | 20.5 µM (inactive) | 25.5 µM (inactive) | 15.1 µM (inactive) | 56.5 µM (inactive) | 15 µM (inactive) | 18 µM (inactive) | 21.2 µM (inactive) | 38.8 µM (inactive) | 46.6 µM (inactive) | 31.7 µM (inactive) | 31.3 µM (inactive) | > 100 µM (inactive) | 16.8 µM (inactive) | 28.3 µM (inactive) | > 100 µM (inactive) | 25.2 µM (inactive) | 23.2 µM (inactive) | 12.9 µM (inactive) |
| CC(=O)c1c[nH]cc1CO | > 10 µM (inactive) | > 10 µM (inactive) | > 10 µM (inactive) |  | > 10 µM (inactive) |  | > 10 µM (inactive) | > 10 µM (inactive) |  | > 10 µM (inactive) |  | > 10 µM (inactive) |  | > 10 µM (inactive) | > 10 µM (inactive) | > 10 µM (inactive) |  | > 10 µM (inactive) |
| CCCC(=O)OC1CC(n2cc(F)c(=O)[nH]c2=O)OC1COP(=O)(OCC(Cl)(Cl)Cl)OCC(Cl)(Cl)Cl (centres undefined) | 8.04 µM (inactive) | 20.7 µM (inactive) | 0.283 µM (active) | 16.9 µM (inactive) | 0.49 µM (active) | 18.2 µM (inactive) | 0.0697 µM (active) | 2.44 µM (inactive) | 24.2 µM (inactive) | 28.4 µM (inactive) | 0.938 µM (active) |  | 13.7 µM (inactive) | 65.2 µM (inactive) | 4.99 µM (inactive) | 16.1 µM (inactive) | 13.9 µM (inactive) | 0.766 µM (active) |
| COc1ccc2c(c1)c1c3c(ccc4ncn2c43)N(CCO)CCN=1 | 0.306 µM (active) | 0.263 µM (active) | 0.247 µM (active) | 0.221 µM (active) | 0.104 µM (active) | 0.234 µM (active) | 0.189 µM (active) | 0.188 µM (active) | 0.183 µM (active) | 0.245 µM (active) | 0.282 µM (active) | 0.215 µM (active) | 0.136 µM (active) | 0.182 µM (active) | 2.07 µM (inactive) | 0.151 µM (active) | 0.274 µM (active) | 0.221 µM (active) |
| COP(=O)(OC)C(O)CC(C)C (centres undefined) | > 100 µM (inactive) | > 100 µM (inactive) | > 100 µM (inactive) | > 100 µM (inactive) | > 100 µM (inactive) | > 100 µM (inactive) | > 100 µM (inactive) | > 100 µM (inactive) | > 100 µM (inactive) | > 100 µM (inactive) | > 100 µM (inactive) | > 100 µM (inactive) | > 100 µM (inactive) | > 100 µM (inactive) |  |  |  |  |
| Clc1ncnc(Cl)c1Cl | > 100 µM (inactive) | > 100 µM (inactive) | > 100 µM (inactive) | > 100 µM (inactive) | > 100 µM (inactive) | > 100 µM (inactive) | > 100 µM (inactive) | > 100 µM (inactive) | > 100 µM (inactive) | > 100 µM (inactive) | > 100 µM (inactive) |  | > 100 µM (inactive) | > 100 µM (inactive) | > 100 µM (inactive) | > 100 µM (inactive) | > 100 µM (inactive) | > 100 µM (inactive) |
| CC(C)[C@@H]1OC(=O)[C@@H](C)NC(=O)[C@@H]2CCCN2C1=O (cyclo([Hiv]-Pro-[dA])) |  | > 100 µM (inactive) | > 100 µM (inactive) | > 100 µM (inactive) |  | > 100 µM (inactive) | > 100 µM (inactive) | > 100 µM (inactive) | > 100 µM (inactive) | > 100 µM (inactive) | > 100 µM (inactive) | > 100 µM (inactive) | > 100 µM (inactive) | > 100 µM (inactive) | > 100 µM (inactive) | > 100 µM (inactive) | > 100 µM (inactive) | > 100 µM (inactive) |
| O=C(CSCC(=O)N/N=C/c1ccc(F)cc1)N/N=C/c1ccc(F)cc1 | > 100 µM (inactive) | > 100 µM (inactive) |  | > 100 µM (inactive) | 48.6 µM (inactive) |  | 46.6 µM (inactive) | > 100 µM (inactive) | > 100 µM (inactive) | > 100 µM (inactive) | > 100 µM (inactive) | 38.2 µM (inactive) | > 100 µM (inactive) | > 100 µM (inactive) | > 100 µM (inactive) |  | > 100 µM (inactive) | > 100 µM (inactive) |
| N#CC(C#N)=C/C=C/c1ccccc1[N+](=O)[O-] | > 10 µM (inactive) | > 10 µM (inactive) | 5.04 µM (inactive) | 6 µM (inactive) | 5.78 µM (inactive) |  | 3.95 µM (inactive) | 3.74 µM (inactive) | 2.59 µM (inactive) |  | > 10 µM (inactive) | > 10 µM (inactive) | 6.62 µM (inactive) | > 10 µM (inactive) | 5.08 µM (inactive) | 2.52 µM (inactive) | 3.48 µM (inactive) | > 10 µM (inactive) |
| CCOc1ccc(NC(=O)CC2C(=O)Nc3ccccc3[S+]2[O-])cc1 (centres undefined) | 20.1 µM (inactive) |  | > 67 µM (inactive) | > 57.1 µM (inactive) | > 52 µM (inactive) |  |  | > 100 µM (inactive) |  | > 100 µM (inactive) |  | > 64 µM (inactive) | > 100 µM (inactive) | > 64.7 µM (inactive) | 23.4 µM (inactive) | > 100 µM (inactive) |  | 49.7 µM (inactive) |
